EP2974721A1, “A PHARMACEUTICAL COMPOSITION COMPRISING A GAS GENERATING INGREDIENT” (Nanomega Medical Corporation, priority 2014, dated 2016)

Legend:
[1] = test system: intestinal proteases; assay: Inhibition of proteolytic degradation of insulin in isolated proximal small intestine (duodenum); assay type: biochemical; settings: added to insulin; duodenum freshly isolated from rats; result in words
Source text: Inhibition of proteolytic degradation. Inhibiting the proteolytic degradation of insulin in the intestinal fluid and the mucosal layer is critical for increasing its oral bioavailability. The inhibiting effects of DTPA and SDS on intestinal proteases were separately studied in in vitro studies of the proximal portion of the small intestine (i.e., the duodenum) freshly isolated from rats. The various digestive enzymes secreted from the pancreas into the duodenum are well-recognized. […] Insulin is highly sensitive to trypsin and chymotrypsin, which are Ca^2+-dependent enzymes in the intestinal fluid and in the mucosal layer. One strategy for inhibiting intestinal protease activities is using complexing agents such as DTPA to remove essential metal ions (e.g., Ca^2+) from the enzyme structure at vicinity of the bioactive agent. […] Proposed molecular mechanisms of proteolytic inhibition by SDS include local conformational changes or altered charge distributions of the proteases induced by their specific binding of SDS.

[2] = test system: Caco-2 cell monolayers; assay: Epithelial permeability: transmission of FITC-insulin across cell monolayers (fluorescence microscopy); assay type: cell-based, human; settings: cells co-cultured with the component; stained for Cld 4, E-cadherin, DAPI; result in words
Source text: Cell images of cells bound with nano/micro bubbles.
Enhanced epithelial permeability. Drug permeation may occur across the intestinal epithelium and through either transcellular or paracellular routes. To elucidate the precise mechanisms of interactions between the bubble carrier system and epithelial cells and its subsequent transport of the drug, the effects of DTPA and SDS on epithelial permeability were individually studied using Caco-2 cell monolayers. Monolayers of Caco-2 cells derived from human colorectal adenocarcinoma are widely used in in vitro models for predicting intestinal drug permeability.

SMILES	protective effect on insulin against the intestinal proteases [1]	transmission of FITC-insulin (pathway) [2]
CCCCCCCCCCCCOS(=O)(=O)[O-].[Na+] [SDS, sodium dodecyl sulfate]	strong protective effect	promote transmission of FITC-insulin via both of paracellular pathway and transcellular pathway
O=C(O)CN(CCN1CC(=O)OC(=O)C1)CCN1CC(=O)OC(=O)C1 [DTPA dianhydride, diethylenetriaminepentaacetic dianhydride]		promote transmission of FITC-insulin via paracellular pathway
O=C(O)CN(CCN(CC(=O)O)CC(=O)O)CCN(CC(=O)O)CC(=O)O [DTPA, diethylene triamine pentaacetic acid]	strong protective effect	
